Assay results taken from ChEMBL document CHEMBL2380247, “Synthesis and biological evaluation of novel aliphatic amido-quaternary ammonium salts for anticancer chemotherapy: part II” (2013).

How the values were obtained:
Type in all cases: functional
MDA-MB-231 [1] = assay: Antiproliferative activity against human MDA-MB-231 cells at 3 uM by SRB assay
NCI-H23 [2] = assay: Antiproliferative activity against human NCI-H23 cells at 1 uM by SRB assay
NCI-H23 [3] = assay: Antiproliferative activity against human NCI-H23 cells at 3 uM by SRB assay
MDA-MB-231 [4] = assay: Antiproliferative activity against human MDA-MB-231 cells by SRB assay
MDA-MB-231 [5] = assay: Antiproliferative activity against human MDA-MB-231 cells at 10 uM by SRB assay
NUGC-3 [6] = assay: Antiproliferative activity against human NUGC3 cells at 3 uM by SRB assay
ACHN [7] = assay: Antiproliferative activity against human ACHN cells by SRB assay
HCT-15 [8] = assay: Antiproliferative activity against human HCT15 cells at 0.1 uM by SRB assay
ACHN [9] = assay: Antiproliferative activity against human ACHN cells at 1 uM by SRB assay
HCT-15 [10] = assay: Antiproliferative activity against human HCT15 cells at 0.3 uM by SRB assay
NCI-H23 [11] = assay: Antiproliferative activity against human NCI-H23 cells at 10 uM by SRB assay
NUGC-3 [12] = assay: Antiproliferative activity against human NUGC3 cells by SRB assay
NUGC-3 [13] = assay: Antiproliferative activity against human NUGC3 cells at 0.1 uM by SRB assay
NCI-H23 [14] = assay: Antiproliferative activity against human NCI-H23 cells at 0.1 uM by SRB assay
PC-3 [15] = assay: Antiproliferative activity against human PC3 cells at 3 uM by SRB assay
PC-3 [16] = assay: Antiproliferative activity against human PC3 cells at 10 uM by SRB assay
PC-3 [17] = assay: Antiproliferative activity against human PC3 cells at 0.3 uM by SRB assay
NUGC-3 [18] = assay: Antiproliferative activity against human NUGC3 cells at 10 uM by SRB assay
HCT-15 [19] = assay: Antiproliferative activity against human HCT15 cells at 3 uM by SRB assay
NCI-H23 [20] = assay: Antiproliferative activity against human NCI-H23 cells by SRB assay
NUGC-3 [21] = assay: Antiproliferative activity against human NUGC3 cells at 0.3 uM by SRB assay
MDA-MB-231 [22] = assay: Antiproliferative activity against human MDA-MB-231 cells at 1 uM by SRB assay
NCI-H23 [23] = assay: Antiproliferative activity against human NCI-H23 cells at 0.3 uM by SRB assay
ACHN [24] = assay: Antiproliferative activity against human ACHN cells at 10 uM by SRB assay
PC-3 [25] = assay: Antiproliferative activity against human PC3 cells at 0.1 uM by SRB assay
HCT-15 [26] = assay: Antiproliferative activity against human HCT15 cells at 10 uM by SRB assay
MDA-MB-231 [27] = assay: Antiproliferative activity against human MDA-MB-231 cells at 0.3 uM by SRB assay
NUGC-3 [28] = assay: Antiproliferative activity against human NUGC3 cells at 1 uM by SRB assay
HCT-15 [29] = assay: Antiproliferative activity against human HCT15 cells at 1 uM by SRB assay
ACHN [30] = assay: Antiproliferative activity against human ACHN cells at 3 uM by SRB assay
PC-3 [31] = assay: Antiproliferative activity against human PC3 cells by SRB assay
PC-3 [32] = assay: Antiproliferative activity against human PC3 cells at 1 uM by SRB assay
ACHN [33] = assay: Antiproliferative activity against human ACHN cells at 0.3 uM by SRB assay
MDA-MB-231 [34] = assay: Antiproliferative activity against human MDA-MB-231 cells at 0.1 uM by SRB assay
ACHN [35] = assay: Antiproliferative activity against human ACHN cells at 0.1 uM by SRB assay
HCT-15 [36] = assay: Antiproliferative activity against human HCT15 cells by SRB assay

| SMILES | growth, % of control at 3 µM (MDA-MB-231 [1]) | growth, % of control at 1 µM (NCI-H23 [2]) | growth, % of control at 3 µM (NCI-H23 [3]) | GI50 (MDA-MB-231 [4]) | growth, % of control at 10 µM (MDA-MB-231 [5]) | growth, % of control at 3 µM (NUGC-3 [6]) | GI50 (ACHN [7]) | growth, % of control at 0.1 µM (HCT-15 [8]) | growth, % of control at 1 µM (ACHN [9]) | growth, % of control at 0.3 µM (HCT-15 [10]) | growth, % of control at 10 µM (NCI-H23 [11]) | GI50 (NUGC-3 [12]) | growth, % of control at 0.1 µM (NUGC-3 [13]) | growth, % of control at 0.1 µM (NCI-H23 [14]) | growth, % of control at 3 µM (PC-3 [15]) | growth, % of control at 10 µM (PC-3 [16]) | growth, % of control at 0.3 µM (PC-3 [17]) | growth, % of control at 10 µM (NUGC-3 [18]) | growth, % of control at 3 µM (HCT-15 [19]) | GI50 (NCI-H23 [20]) | also measured |
| --- | --- | --- | --- | --- | --- | --- | --- | --- | --- | --- | --- | --- | --- | --- | --- | --- | --- | --- | --- | --- | --- |
| CCCCCCCCCCCCCCCC(=O)N(C)CC[N+](CC)(CC)Cc1ccccc1 | 33.2% | 75.4% | 39.7% | 1130 nM | -4.4% | 1.3% | 600 nM | 100% | 52.3% | 101% | 6.5% | 360 nM | 92.7% | 113% | 1.4% | -13.9% | 80.4% | -9.3% | 92.8% | 1220 nM | growth, % of control at 0.3 µM (NUGC-3 [21]): 84.8%; growth, % of control at 1 µM (MDA-MB-231 [22]): 82.1%; growth, % of control at 0.3 µM (NCI-H23 [23]): 112%; growth, % of control at 10 µM (ACHN [24]): 1.6%; growth, % of control at 0.1 µM (PC-3 [25]): 86.6%; growth, % of control at 10 µM (HCT-15 [26]): 71.1%; growth, % of control at 0.3 µM (MDA-MB-231 [27]): 96.5%; growth, % of control at 1 µM (NUGC-3 [28]): 31.4%; growth, % of control at 1 µM (HCT-15 [29]): 99.4%; growth, % of control at 3 µM (ACHN [30]): 28%; GI50 (PC-3 [31]): 310 nM; growth, % of control at 1 µM (PC-3 [32]): 25.8%; growth, % of control at 0.3 µM (ACHN [33]): 86.3%; growth, % of control at 0.1 µM (MDA-MB-231 [34]): 105%; growth, % of control at 0.1 µM (ACHN [35]): 83.4%; GI50 (HCT-15 [36]): > 10 µM |
| C=CC[N+](C)(C)CCCN(C)C(=O)CCCCCCCCCCCCCCC | 33.8% | 65.5% | 23.9% | 800 nM | 11.6% | -13.9% | 470 nM | 97.4% | 53.3% | 103% | -13.6% | 360 nM | 105% | 93.2% | 7.93% | -11.9% | 98% | -30.4% | 81.2% | 680 nM | growth, % of control at 0.3 µM (NUGC-3 [21]): 92.8%; growth, % of control at 1 µM (MDA-MB-231 [22]): 66%; growth, % of control at 0.3 µM (NCI-H23 [23]): 94.7%; growth, % of control at 10 µM (ACHN [24]): -6.41%; growth, % of control at 0.1 µM (PC-3 [25]): 98.5%; growth, % of control at 10 µM (HCT-15 [26]): 58%; growth, % of control at 0.3 µM (MDA-MB-231 [27]): 88.3%; growth, % of control at 1 µM (NUGC-3 [28]): 28.1%; growth, % of control at 1 µM (HCT-15 [29]): 103%; growth, % of control at 3 µM (ACHN [30]): 30%; GI50 (PC-3 [31]): 430 nM; growth, % of control at 1 µM (PC-3 [32]): 41.9%; growth, % of control at 0.3 µM (ACHN [33]): 77.3%; growth, % of control at 0.1 µM (MDA-MB-231 [34]): 86.5%; growth, % of control at 0.1 µM (ACHN [35]): 81%; GI50 (HCT-15 [36]): > 10 µM |
| CCCCCCCCCCCCCCCC(=O)N(C)CCC[N+](C)(C)CC | 47.2% | 62.9% | 31.2% | 1380 nM | 19% | -18.5% | 1020 nM | 95.6% | 62.3% | 98.3% | -15.5% | 220 nM | 101% | 103% | 1.57% | -17.2% | 101% | -37.1% | 69.2% | 780 nM | growth, % of control at 0.3 µM (NUGC-3 [21]): 77.8%; growth, % of control at 1 µM (MDA-MB-231 [22]): 73.3%; growth, % of control at 0.3 µM (NCI-H23 [23]): 100%; growth, % of control at 10 µM (ACHN [24]): 15.7%; growth, % of control at 0.1 µM (PC-3 [25]): 105%; growth, % of control at 10 µM (HCT-15 [26]): 40.3%; growth, % of control at 0.3 µM (MDA-MB-231 [27]): 97.7%; growth, % of control at 1 µM (NUGC-3 [28]): 7.32%; growth, % of control at 1 µM (HCT-15 [29]): 84.4%; growth, % of control at 3 µM (ACHN [30]): 41.5%; GI50 (PC-3 [31]): 490 nM; growth, % of control at 1 µM (PC-3 [32]): 44.6%; growth, % of control at 0.3 µM (ACHN [33]): 95%; growth, % of control at 0.1 µM (MDA-MB-231 [34]): 98.7%; growth, % of control at 0.1 µM (ACHN [35]): 95.1%; GI50 (HCT-15 [36]): 3.42 µM |
| CCCCCCCCCCCCCCCCCC(=O)NCC(C)(C)C[N+](C)(C)CC | 40.4% | 74.7% | 29.8% | 1120 nM | 19.9% | 14.8% | 1950 nM | 98% | 75.5% | 96.7% | -18.3% | 420 nM | 83.1% | 95.1% | -38.3% | -46.2% | 82.2% | 2.11% | 61.6% | 980 nM | growth, % of control at 0.3 µM (NUGC-3 [21]): 69.6%; growth, % of control at 1 µM (MDA-MB-231 [22]): 70.4%; growth, % of control at 0.3 µM (NCI-H23 [23]): 97.7%; growth, % of control at 10 µM (ACHN [24]): 33%; growth, % of control at 0.1 µM (PC-3 [25]): 89.5%; growth, % of control at 10 µM (HCT-15 [26]): 32.6%; growth, % of control at 0.3 µM (MDA-MB-231 [27]): 79.1%; growth, % of control at 1 µM (NUGC-3 [28]): 52.5%; growth, % of control at 1 µM (HCT-15 [29]): 86.8%; growth, % of control at 3 µM (ACHN [30]): 50%; GI50 (PC-3 [31]): 300 nM; growth, % of control at 1 µM (PC-3 [32]): 21.6%; growth, % of control at 0.3 µM (ACHN [33]): 82.9%; growth, % of control at 0.1 µM (MDA-MB-231 [34]): 87.8%; growth, % of control at 0.1 µM (ACHN [35]): 91.5%; GI50 (HCT-15 [36]): 2.74 µM |
